Measured values from US11225503B2, “Crystobactamides” (HELMHOLTZ-ZENTRUM FÜR INFEKTIONSFORSCHUNG GMBH, priority 2013, dated 2022).
Values after ≈ are worked out from the molar mass of the structure shown.

Key:
Format in all cases: cell-based
[1] = tested on: E. coli strain WT III (marR Δ74 bp); experiment: Susceptibility of mutant E. coli strains, MIC
Procedure: (§1) Bacterial wildtype strains used in susceptibility assays were either part of our strain collection or purchased from the German Collection of Microorganisms and Cell Cultures (DSMZ) or from the American Type Culture Collection (ATCC). E. coli strain WT^[6] and E. coli mutants were kindly provided by Prof. Dr. P. Heisig, Pharmaceutical Biology and Microbiology, University of Hamburg.
(§2) MIC values were determined in microdilution assays. Overnight cultures were diluted in the appropriate growth medium to achieve an inoculum of 10^4-10^6 cfu/mL. Yeasts were grown in Myc medium (1% phytone peptone, 1% glucose, 50 mM HEPES, pH 7.0), S. pneumonia and E. faecalis in tryptic soy broth (TSB: 1.7% peptone casein, 0.3% peptone soymeal, 0.25% glucose, 0.5% NaCl, 0.25% K2HPO4; pH 7.3); M. smegmatis in Middlebrook 7H9 medium supplemented with 10% Middlebrook ADC enrichment and 2 ml/l glycerol). All other listed bacteria were grown in Müller-Hinton broth (0.2% beef infusion solids, 1.75% casein hydrolysate, 0.15% starch, pH 7.4). Cystobactamides and reference drugs were added directly to the cultures in sterile 96-well plates as duplicates and serial dilutions were prepared. Microorganisms were grown on a microplate shaker (750 rpm, 30-37° C., 18-48 h), except S. pneumonia, which was grown at non-shaking conditions (37° C., 5% CO2, 18 h). Growth inhibition was assessed by visual inspection and the MIC was defined as the lowest concentration of compound that inhibited visible growth.

[2] = tested on: E. coli strain WT-3 (combination of both gyrA mutations); details: Escherichia coli WT-3 [gyrA(S83L, D87G)]
Text: (§3) Cystobactamides were screened using a panel of E. coli strains with typical mutations in gyrA and parC genes (Table 11).
as §1
as §2, with “Cystobactamides and reference drugs were added directly to the cultures in sterile 96-well plates as duplicates and serial dilutions were prepared. Microorganisms were grown on a microplate shaker (750 rpm, 30-37° C., 18-48 h), except S. pneumonia, which was grown at non-shaking conditions (37° C., 5% CO2, 18 h).” left out

[3] = tested on: Escherichia coli DSM-1116; experiment: Susceptibility testing, MIC microdilution; details: Escherichia coli DSM-1116
Procedure: as §1, §2

[4] = tested on: Burkholderia cenocepacia DSM-16553; experiment: Susceptibility testing, MIC microdilution; details: Burkholderia cenocepacia DSM-16553
Procedure: as §1, §2

[5] = tested on: Pseudomonas aeruginosa ATCC27853; experiment: Susceptibility testing, MIC microdilution
Procedure: as §1, §2

[6] = tested on: Chromobacterium violaceum DSM-30191; experiment: Susceptibility testing, MIC microdilution; details: Chromobacterium violaceum DSM-30191
Procedure: as §1, §2

[7] = tested on: Bacillus subtilis DSM-10; experiment: Susceptibility testing, MIC microdilution; details: Bacillus subtilis DSM-10
Procedure: as §1, §2

[8] = tested on: Micrococcus luteus DSM-1790; experiment: Susceptibility testing, MIC microdilution; details: Micrococcus luteus DSM-1790
Procedure: as §1, §2

[9] = tested on: Enterococcus faecalis ATCC29212; experiment: Susceptibility testing, MIC microdilution
Procedure: as §1, §2

[10] = tested on: Escherichia coli DSM-12242 (NAL^R); experiment: Susceptibility testing, MIC microdilution; details: Escherichia coli DSM-12242 (NAL^R)
Procedure: as §1, §2

[11] = tested on: Mycobacterium smegmatis mc^2155 ATCC700084; experiment: Susceptibility testing, MIC microdilution; details: Mycobacterium smegmatis mc^2155 ATCC700084
Procedure: as §1, §2

[12] = tested on: Enterobacter aerogenes DSM-30053; experiment: Susceptibility testing, MIC microdilution; details: Enterobacter aerogenes DSM-30053
Procedure: as §1, §2

[13] = tested on: Pichia anomala DSM-6766; experiment: Susceptibility testing, MIC microdilution; details: Pichia anomala DSM-6766
Procedure: as §1, §2

[14] = tested on: Escherichia coli ATCC35218; experiment: Susceptibility testing, MIC microdilution
Procedure: as §1, §2

[15] = tested on: Klebsiella pneumoniae DSM-30104; experiment: Susceptibility testing, MIC microdilution; details: Klebsiella pneumoniae DSM-30104
Procedure: as §1, §2

[16] = tested on: Candida albicans DSM-1665; experiment: Susceptibility testing, MIC microdilution; details: Candida albicans DSM-1665
Procedure: as §1, §2

[17] = tested on: Staphylococcus aureus ATCC29213; experiment: Susceptibility testing, MIC microdilution
Procedure: as §1, §2

[18] = tested on: Escherichia coli ATCC25922; experiment: Susceptibility testing, MIC microdilution
Procedure: as §1, §2

[19] = tested on: Streptococcus pneumoniae DSM-20566; experiment: Susceptibility testing, MIC microdilution; details: Streptococcus pneumoniae DSM-20566
Procedure: as §1, §2

[20] = tested on: Acinetobacter baumannii DSM-30008; experiment: Susceptibility testing, MIC microdilution; details: Acinetobacter baumannii DSM-30008
Procedure: as §1, §2

[21] = tested on: Escherichia coli DSM-26863 (tolC3); experiment: Susceptibility testing, MIC microdilution; details: Escherichia coli DSM-26863 (tolC3)
Procedure: as §1, §2

[22] = tested on: E. coli strain MI (single-step gyrA mutation); experiment: Susceptibility of mutant E. coli strains, MIC; details: Escherichia coli MI [gyrA(S83L)]
Text: as §3, §1, §2

[23] = tested on: E. coli strain WT-4 M2.1 (parC mutation); experiment: Susceptibility of mutant E. coli strains, MIC; details: Escherichia coli WT-4 M2.1 [parC(S801)]
Text: as §3, §1, §2

[24] = tested on: E. coli strain WT-3.2 (single-step gyrA mutation); experiment: Susceptibility of mutant E. coli strains, MIC; details: Escherichia coli WT-3.2 [gyrA(D87G)]
Text: as §3, §1, §2

[25] = tested on: Escherichia coli MI-4 [gyrA(S83L), parC(S801)]; experiment: Susceptibility of mutant E. coli strains, MIC
Text: as §3

[26] = tested on: several microorganisms and cell lines; experiment: Biological evaluation, summary statements over the MIC and cytotoxicity tests
Procedure: (§4) Cells were seeded at 6×10^3 cells per well of 96-well plates (Corning CellBind®) in complete medium (180 μl) and directly treated with cystobactamides dissolved in methanol in a serial dilution. Compound were tested in duplicate for 5 d, as well as the internal solvent control. After 5 d incubation, 5 mg/ml MTT in PBS (20 μL) was added per well and it was further incubated for 2 h at 37° C.[7] The medium was then discarded and cells were washed with PBS (100 μl) before adding 2-propanol/10N HCl (250:1, v/v; 100 μl) in order to dissolve formazan granules. The absorbance at 570 nm was measured using a microplate reader (EL808, Bio-Tek Instruments Inc.).
as §2

[27] = tested on: E. coli WT; experiment: Susceptibility of mutant E. coli strains, MIC; details: Escherichia coli WT
Text: as §3
High-level quinolone resistance often results from a combination of several target site mutations and altered efflux mechanisms. […] This, in turn, leads to overproduction of MarA and AcrAB and overexpression of the AcrAB efflux pump is associated with the MAR (multiple antibiotic resistance) phenotype.^[5]
as §1, §2

[28] = tested on: Primary HUVEC (human umbilical vein endothelial cells)
Procedure: (§5) Human HCT-116 colon carcinoma cells (CCL-247) were obtained from the American Type Culture Collection (ATCC) and Chinese hamster ovary CHO-K1 cells (ACC-110) were obtained from the German Collection of Microorganisms and Cell Cultures (DSMZ). Both cell lines were cultured under the conditions recommended by the respective depositor. Primary HUVEC (human umbilical vein endothelial cells; single donor) were purchased from PromoCell (Heidelberg, Germany) and cultured in Endothelial Cell Growth Medium (PromoCell) containing the following supplements: 2% FCS, 0.4% ECGS, 0.1 ng/ml EGF, 1 ng/ml bFGF, 90 μg/ml heparin, 1 μg/ml hydrocortisone.
as §4

[29] = tested on: Human HCT-116 colon carcinoma cells
Procedure: as §5, §4

Compound: COC(C(=O)Nc1ccc(C(=O)Nc2ccc(C(=O)Nc3ccc(C(=O)O)cc3OC(C)C)c(O)c2OC(C)C)cc1)C(NC(=O)c1ccc(NC(=O)c2ccc([N+](=O)[O-])cc2)cc1)C(=O)O (stereo not shown) [cystobactamide B]
- MIC, in words ([1]; E. coli WT III): in the μg/ml range
- MIC ([1]; Escherichia coli WTIII [marRΔ74bp]): 3.7 µg/mL (≈ 4.02 µM)
- MIC [2]: 7.4 µg/mL (≈ 8.04 µM)
- MIC [3]: 1.8 µg/mL (≈ 1.95 µM)
- MIC [4]: >59 µg/mL
- MIC [5]: 14.7 µg/mL (≈ 16 µM)
- MIC [6]: 14.7 µg/mL (≈ 16 µM)
- MIC [7]: 0.46 µg/mL (≈ 0.5 µM)
- MIC [8]: 0.23 µg/mL (≈ 0.25 µM)
- MIC [9]: 0.23 µg/mL (≈ 0.25 µM)
- MIC [10]: 3.7 µg/mL (≈ 4.02 µM)
- MIC [11]: >59 µg/mL
- MIC [12]: >59 µg/mL
- MIC [13]: >59 µg/mL
- MIC [14]: 1.8 µg/mL (≈ 1.95 µM)
- MIC [15]: >59 µg/mL
- MIC [16]: >59 µg/mL
- MIC [17]: 0.12 µg/mL (≈ 0.13 µM)
- MIC [18]: 0.9 µg/mL (≈ 0.977 µM)
- MIC [19]: 0.46 µg/mL (≈ 0.5 µM)
- MIC [20]: 3.7 µg/mL (≈ 4.02 µM)
- MIC [21]: 1.8 µg/mL (≈ 1.95 µM)
- MIC [22]: 3.7 µg/mL (≈ 4.02 µM)
- MIC [23]: 1.8 µg/mL (≈ 1.95 µM)
- MIC [24]: 3.7 µg/mL (≈ 4.02 µM)
- MIC [25]: 1.8 µg/mL (≈ 1.95 µM)
- inhibition of pathogenic Gram-negative strains A. baumannii and P. aeruginosa (MIC range) ([26]; A. baumannii and P. aeruginosa): low μg/ml range
- average potency on Gram-positive bacteria compared with ciprofloxacin ([26]; E. faecalis, S. aureus, S. pneumonia, average MIC): exceeded that of ciprofloxacin
- MIC [27]: 1.8 µg/mL
- GI50 [28]: > 50 µM
- GI50 [29]: > 50 µM
